Several values for one entry are separate records, joined by “and”; a condition that tells them apart may be missing. Identical values can stand only once.
What was measured:
Format in all cases: cell-based, Saccharomyces cerevisiae
[1] = test system: RE700A i PPMA1-HXT7 (ICFP); test: Growth inhibition of ICFP by 2-DG; conditions: 20 h 28° C., maltose, in percent of growth of RE700A
Description: (§1) (B) RE700A, ICFP and IT[PDR] were incubated 20 h at 28° C. with maltose (2% (w/v)) as the sole carbon source and the indicated 2-DG concentrations. The optical density was measured at 600 nm every 15 minutes and the integral under the growth curve is calculated. Inhibition of growth of ICFP and IT[PDR] is shown in percent of growth of RE700A. Growth of ICFP was inhibited by 15% at 0.01% (w/v) 2-DG, by 74% at 0.03% (w/v) 2-DG, by 80% at 0.05% (w/v) 2-DG and by 83% at 0.1% (w/v) 2-DG. Growth of IT[PDR] was inhibited by 21% at 0.01% (w/v) 2-DG, by 79% at 0.03% (w/v) 2-DG, by 88% at 0.05% (w/v) 2-DG and by 96% in 0.1% (w/v) 2-DG.
(§2) Strain growth: The growth of the strains in liquid medium was determined by measuring the optical density at 600 nm. To obtain growth curves, measurements were performed every 15 min. Alternatively, start and endpoint (after 12-16 h) measurements were carried out.

[2] = test system: RE700A e PCDR2-HXT7 (ET[CDR2]); test: Growth inhibition of ET[CDR2] by 2-DG; conditions: liquid media, 20 h 28° C., compared to growth in the absence of 2-DG
Description: FIG. 6: Growth inhibition of RE700A, ET[CDR1] and ET[CDR2] in the presence of increasing 2-DG concentrations after 20 h incubation at 28° C. for in liquid medium. RE700A, ET[CDR1] and ET[CDR2] were incubated 20 h at 28° C. with maltose (2% (w/v)) as the sole carbon source in the presence of increasing 2-DG concentrations in liquid medium. The optical density was measured at 600 nm semi-continuously every 15 minutes and the integral under the growth curve was calculated. Inhibition of growth is shown in percent compared to growth in the absence of 2-DG. Growth of ET[CDR1] was inhibited by 92% at a 2-DG concentration in liquid media of 0.05% (w/v), by 94% at a 2-DG concentration in liquid media of 0.075% (w/v), by 93% at a 2-DG concentration in liquid media of 0.1% (w/v) and by 95% at a 2-DG concentration of 0.2% (w/v). Growth of ET[CDR2] was inhibited by 50% at a 2-DG concentration in liquid media of 0.05% (w/v), by 70% at a 2-DG concentration in liquid media of 0.075% (w/v), by 70% at a 2-DG concentration in liquid media of 0.1% (w/v) and by 84% at a 2-DG concentration of 0.2% (w/v).
(2) Episomal screening system for inhibitors of PCDR2: S. cerevisiae strain RE700A was transformed with plasmids pY-PCDR2-HXT7 and pY-PCDR2-GFP yielding strains ET[CDR2] and CQ[CDR2] (for details see construction of strains and plasmids, for the complete genotype refer to Table 1). The inhibition of growth of ET[CDR2] by 2-DG was tested. The growth of this strain was inhibited to more than 80% at a 2-DG concentration of 0.2% (w/v) (FIG. 6). To screen for inhibitors of the PCDR2, the test strain ET[CDR2] can be incubated in selective YNB medium with 2% (w/v) maltose as the carbon source and 0.2% (w/v) 2-DG. Under these non-permissive conditions the growth of the test strain ET[CDR2] was inhibited when PCDR2 was active (FIG. 6).

[3] = test system: RE700A e PPDR5-HXT7 (ET[PDR]); test: Growth inhibition of ET[PDR] by 2-DG; conditions: 20 h 28° C., maltose, in percent of growth of RE700A
Description: (A) RE700A, ECFP and ET[PDR] were incubated 20 h at 28° C. with maltose (2% (w/v)) as the sole carbon source in the presence of the indicated 2-DG concentrations. The optical density was measured at 600 nm every 15 minutes and the integral under the growth curve was calculated. Inhibition of growth of ECFP and ET[PDR] is shown in percent of growth of RE700A. Growth of ECFP was inhibited by 39% at 0.005% (w/v) 2-DG, by 78% at 0.01% (w/v) 2-DG, by 91% at 0.03% (w/v) 2-DG and by 93% at 0.05% (w/v) 2-DG. Growth of ET[PDR] was inhibited by 52% at 0.005% (w/v) 2-DG, by 87% at 0.01% (w/v) 2-DG, by 94% at 0.03% (w/v) 2-DG and by 96% at 0.05% (w/v) 2-DG.
as §2

[4] = test system: RE700A i PPDR5-HXT7 (IT[PDR]); test: Growth inhibition of IT[PDR] by 2-DG; conditions: 20 h 28° C., maltose; for Inhibition of growth: IT[PDR], in percent of growth of RE700A
Description: as §1
(A) Growth inhibition of RE700A i PPDR5-HXT7 (IT[PDR]), RE700A Δpdr1 tok1::PPDR5-HXT7, RE700A Δpdr3 tok1::PPDR5-HXT7 and RE700A Δpdr1,pdr3 tok1::PPDR5-HXT7 at increasing 2-DG concentrations. RE700A i PPDR5-HXT7 (IT[PDR]), RE700A Δpdr1 tok1::PPDR5-HXT7, RE700A Δpdr3 tok1::PPDR5-HXT7 and RE700A Δpdr1,pdr3 tok1::PPDR5-HXT7 were incubated 20 h at 28° C. with Maltose (2% (w/v)) as the sole carbon source and 2-DG concentrations as indicated. The optical density was measured at 600 nm every 15 minutes and the integral under the growth curve was calculated. Inhibition of growth caused by 2-DG is shown in percent. The growth of the strain RE700A tok1::PPDR5-HXT7 (IT[PDR]) was inhibited by 50% at 0.02% (w/v) 2-DG. Growth of the strains RE700A Δpdr1 tok1::PPDR5-HXT7 and RE700A Δpdr3 tok1::PPDR5-HXT7 was inhibited by 50% at 0.026% (w/v) 2-DG.
as §2

O=CC[C@@H](O)[C@H](O)[C@H](O)CO [2-DG, 2-deoxy-glucose]
Inhibition of growth ([1]; 0.01% (w/v) 2-DG): 15%
Inhibition of growth ([1]; 0.03% (w/v) 2-DG): 74%
Inhibition of growth ([1]; 0.05% (w/v) 2-DG): 80%
Inhibition of growth ([1]; 0.1% (w/v) 2-DG): 83%
Inhibition of growth ([2]; 0.05% (w/v) 2-DG): 50%
Inhibition of growth ([2]; 0.075% (w/v) 2-DG): 70%
Inhibition of growth ([2]; 0.1% (w/v) 2-DG): 70%
Inhibition of growth ([3]; 0.005% (w/v) 2-DG): 52%
Inhibition of growth ([3]; 0.01% (w/v) 2-DG): 87%
Inhibition of growth ([3]; 0.03% (w/v) 2-DG): 94%
Inhibition of growth ([3]; 0.05% (w/v) 2-DG): 96%
Inhibition of growth ([4]; 0.01% (w/v) 2-DG): 21%
Inhibition of growth ([4]; 0.03% (w/v) 2-DG): 79%
Inhibition of growth ([4]; 0.05% (w/v) 2-DG): 88%
Inhibition of growth ([4]; 0.1% (w/v) 2-DG): 96%
2-DG concentration for 50% growth inhibition ([4]; RE700A tok1::PPDR5-HXT7 (IT[PDR]), liquid media): 0.021 % (w/v) and 0.02 % (w/v)

From patent US9121026B2 (priority 2004, dated 2015)
